Assay results: patent publication US6500842B1, “8-hydroxy-7-substituted quinolines as anti-viral agents” (Pharmacia & Upjohn Company, priority 1996, dated 2002)
Values joined by “and” are separate entries in the source; they are usually repeats but may differ in a detail not shown here. Identical values can stand only once. Like-named read-outs stand apart in the source and are kept apart here.

Experiments:
[1] = tested on: HCMV; experiment: CMV antiviral assay, cell culture based ELISA in human foreskin fibroblast cells; set-up: species or system human cytomegalovirus (HCMV)
Procedure: Compounds are tested for direct antiviral activity against HCMV using a cell culture based assay. An ELISA (enzyme linked immunosorbant assay) format is used as described in W. A. Tatarowicz, N. S. Lurain and K. D. Thompson, J. Virol. Meth., 35:207-215 (1991). Human foreskin fibroblast cells are infected with HCMV at a multiplicity of 0.025 plaque forming units per microtiter plate well for a period of 90 minutes. The virus inocula is removed and a suspension of test compound prepared in tissue culture media is added for a period of 4 days. The growth media is aspirated and replaced with 95% ethanol to allow fixation of virus infected cultures. The ethanol is removed and the wells are washed twice with saline. A solution of 2% dry fat milk, 1% bovine sera albumin prepared in saline is added to wells to allow for non-specific binding of protein material to plastic surfaces for 1 hr. Murine monoclonal antibody prepared in saline directed against the late (65 KD) matrix protein of HCMV is added to test wells for 1 hr. The wells are washed twice and antibody, conjugated with the enzyme horse radish peroxidase, with specificity against murine IgG is added to test wells for 1 hr. Test wells are washed three times with saline. A solution of o-phenylene diamine, a substrate for horse radish peroxidase is added for 15 minutes at which time enzymatic conversion occurs indicating reactivity of the enzyme with its substrate. This conversion is evident as a color reaction which was spectrophoretically monitored at 490 nm. The intensity of the color indirectly reflects the presence of antibody directed against the viral 65 KD matrix antigen. The presence of the viral matrix antigen refects the amount of HCMV replication. Thus, test wells, in which little viral replication has occurred, would have little or no antibody binding and are present with low levels of color. Non-infected wells serve as the assay background control.

[2] = biological target: T1, CMV polymerase (Human cytomegalovirus, UniProt P08546); experiment: modified version of the HCMV polymerase assay (100% DMSO dilution, DTT, different enzyme lot); type: biochemical; settings: for IC50: read-out: IC50
T1 construct: made in house; host or cells: recombinant baculovirus-infected SF-9 cells
T1 sequence (P08546 whole entry): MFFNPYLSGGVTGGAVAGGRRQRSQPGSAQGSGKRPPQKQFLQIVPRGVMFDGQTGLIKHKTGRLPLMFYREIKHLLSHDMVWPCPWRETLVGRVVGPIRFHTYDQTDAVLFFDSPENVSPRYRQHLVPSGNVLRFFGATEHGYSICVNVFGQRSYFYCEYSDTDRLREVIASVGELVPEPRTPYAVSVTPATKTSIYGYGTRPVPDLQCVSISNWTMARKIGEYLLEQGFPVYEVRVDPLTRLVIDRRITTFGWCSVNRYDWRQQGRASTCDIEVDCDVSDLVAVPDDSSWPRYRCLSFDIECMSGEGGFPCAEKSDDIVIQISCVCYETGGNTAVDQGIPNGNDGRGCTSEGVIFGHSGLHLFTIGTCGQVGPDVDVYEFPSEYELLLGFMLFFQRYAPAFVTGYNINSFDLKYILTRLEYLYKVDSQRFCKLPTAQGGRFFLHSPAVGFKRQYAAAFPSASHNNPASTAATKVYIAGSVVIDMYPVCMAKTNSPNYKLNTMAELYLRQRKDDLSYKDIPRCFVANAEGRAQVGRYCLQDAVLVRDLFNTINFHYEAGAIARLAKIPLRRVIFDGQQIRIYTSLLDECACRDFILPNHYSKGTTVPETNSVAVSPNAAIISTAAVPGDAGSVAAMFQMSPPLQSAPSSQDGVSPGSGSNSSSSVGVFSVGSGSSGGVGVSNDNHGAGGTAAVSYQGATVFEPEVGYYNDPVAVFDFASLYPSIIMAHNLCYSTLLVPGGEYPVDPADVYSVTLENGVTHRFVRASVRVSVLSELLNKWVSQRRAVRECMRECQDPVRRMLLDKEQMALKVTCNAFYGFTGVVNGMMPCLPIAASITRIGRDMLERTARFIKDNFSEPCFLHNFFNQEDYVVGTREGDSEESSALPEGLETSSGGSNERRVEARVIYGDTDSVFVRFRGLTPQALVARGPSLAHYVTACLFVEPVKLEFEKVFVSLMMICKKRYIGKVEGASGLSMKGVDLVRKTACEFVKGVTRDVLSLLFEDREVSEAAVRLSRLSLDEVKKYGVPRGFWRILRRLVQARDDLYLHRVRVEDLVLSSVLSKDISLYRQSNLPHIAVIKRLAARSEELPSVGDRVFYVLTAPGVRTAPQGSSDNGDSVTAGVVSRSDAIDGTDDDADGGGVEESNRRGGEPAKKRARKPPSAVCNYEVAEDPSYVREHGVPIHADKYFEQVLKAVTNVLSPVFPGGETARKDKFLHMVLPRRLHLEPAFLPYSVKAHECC
Summary of the method: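 Baculovirus-expressed HCMV polymerase incorporated 90 nM 3H-dTTP on 6 nM biotinylated poly(dA)-oligo(dT) in HEPES pH 7.5, KCl, MgCl2, BSA, ±2 mM CHAPS, 30 min; streptavidin-SPA read-out, IC50 by regression. In this modified version, compounds were diluted in 100% DMSO, 4.5 mM DTT was added, and a different enzyme lot was used.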

[3] = Human betaherpesvirus 5, Fibroblast, antiviral, Table 4, read-out: IC50 (AV)
[4] = Human betaherpesvirus 5, Fibroblast, read-out: CMV Antiviral Assay IC50 (AV), Table 12
[5] = read-out: CMV Antiviral Assay IC50 (AV), Table 12
[6] = antiviral, Table 4, read-out: IC50 (AV)

## C[Si](C)(c1ccccc1)c1cc(Cl)c2cccnc2c1O [Example 45, 5-Chloro-7-(dimethylphenylsilyl)-8-quinolinol]
other
  melting point: 101 to 103 °C
[1]; Conc 2.00e+001 uM, Table 4
  % Inh −AV: 83.0%
[1]; Conc 4.00e+000 uM, Table 4
  % Inh −AV: 75.0%
[1]; Conc 4.00e+001 uM, Table 4
  % Inh −AV: 89.0%
[1]; Conc 8.00e−001 uM, Table 4
  % Inh −AV: 39.0%
[1]; [3]
  IC50: 1.2 µM

## N#CCNC(=O)c1ccc2cccnc2c1O [drawing 130]
[1]; Human betaherpesvirus 5, Fibroblast, read-out: CMV Antiviral Assay IC50 (AV), Table 7
  IC50: 3 µM

## C[Si](C)(C)c1cc(Cl)c2cccnc2c1O [Example 44, 5-Chloro-7-(trimethylsilyl)-8-quinolinol]
other
  melting point: 109 to 111 °C
[1]; Conc 4.00e+000 uM, Table 4
  % Inh −AV: 65.0% and 59.0%
[1]; [3]
  IC50: 2.7 µM

## Cc1ccc2c(Cl)cc(S(=O)(=O)NCc3ccccn3)c(O)c2n1 [drawing 327]
[1]; [4]
  IC50: 14.4 µM
[1]; [5]
  IC50: 14.1 µM and 9.4 µM

## O=C(Nc1nc2ccc(Cl)cc2s1)c1ccc2cccnc2c1O [drawing 325]
[1]; [4]
  IC50: 25.5 µM

## CC(C)[Si](c1cc(Cl)c2cccnc2c1O)(C(C)C)C(C)C [Example 42]
other
  melting point: 107 to 108 °C
[1]; Conc 2.00e+001 uM, Table 4
  % Inh −AV: 88.0% and 99.0%
[1]; Conc 4.00e+000 uM, Table 4
  % Inh −AV: 51.0% and 89.0%
[1]; Conc 4.00e+001 uM, Table 4
  % Inh −AV: 92.0% and 99.0%
[1]; Conc 8.00e−001 uM, Table 4
  % Inh −AV: 0.0%
[1]; [6]
  IC50: 5.2 µM

## N#Cc1ccc(NC(=O)c2ccc3cccnc3c2O)cc1 [drawing 331]
[1]; Human betaherpesvirus 5, Fibroblast, Table 12, read-out: CMV Antiviral Assay IC50 (AV)
  IC50: 3.9 µM

## Cc1ccc2c(Cl)cc(S(=O)(=O)NCCCCc3ccccc3)c(O)c2n1 [Example 61, 5-Chloro-8-hydroxy-2-methyl-N-(4-phenylbutyl)-7-quinoline-sulfonamide]
other
  melting point: 84 to 86 °C
[2]; Concentration 3.13 μM, Table 6
  inhibition at 3.13 µM: 13%
[2]; Concentration 6.25 μM, Table 6
  inhibition at 6.25 µM: 15%
[2]; Concentration 12.5 μM, Table 6
  inhibition at 12.5 µM: 23%
[2]; Concentration 25 μM, Table 6
  inhibition at 25 µM: 30%
[2]; Concentration 50 μM, Table 6
  inhibition at 50 µM: 30%
[2]; Concentration 100 μM, Table 6
  inhibition at 100 µM: 38%
[2]; Concentration 200 μM, Table 6
  inhibition at 200 µM: 51%
[2]; Table 6
  IC50: > 200 µM

## Cc1ccc2c(Cl)cc(S(=O)(=O)NCCc3ccc(Cl)cc3)c(O)c2n1 [Example 60, 5-Chloro-N-[2-(4-chlorophenyl)ethyl]-8-hydroxy-2-methyl-7-quinolinesulfonamide]
other
  melting point: 131 to 133 °C
[2]; Concentration 3.13 μM, Table 6
  inhibition at 3.13 µM: 30%
[2]; Concentration 6.25 μM, Table 6
  inhibition at 6.25 µM: 19%
[2]; Concentration 12.5 μM, Table 6
  inhibition at 12.5 µM: 31%
[2]; Concentration 25 μM, Table 6
  inhibition at 25 µM: 32%
[2]; Concentration 50 μM, Table 6
  inhibition at 50 µM: 51%
[2]; Concentration 100 μM, Table 6
  inhibition at 100 µM: 55%
[2]; Concentration 200 μM, Table 6
  inhibition at 200 µM: 70%
[2]; Table 6
  IC50: 57.4 µM

## Cc1ccc2c(Cl)cc(S(=O)(=O)NCCc3ccccn3)c(O)c2n1 [drawing 329]
[1]; [4]
  IC50: 14.6 µM

## CC(C)(C)[Si](C)(C)c1cc(Cl)c2cccnc2c1O [Example 41, 5-Chloro-7-[(1,1-dimethylethyl)dimethylsilyl]-8-quinolinol]
other
  melting point: 107 to 108 °C
[1]; Conc 1.00e+001 uM, Table 4
  % Inh −AV: 92.0%
[1]; Conc 2.00e+000 uM, Table 4
  % Inh −AV: 56.0%
[1]; Conc 2.00e+001 uM, Table 4
  % Inh −AV: 86.0% and 76.0%
[1]; Conc 4.00e+000 uM, Table 4
  % Inh −AV: 65.0% and 70.0%
[1]; Conc 4.00e+001 uM, Table 4
  % Inh −AV: 99.0% and 76.0%
[1]; Conc 5.00e+001 uM, Table 4
  % Inh −AV: 78.0%
[1]; Conc 8.00e+000 uM, Table 4
  % Inh −AV: 78.0%
[1]; [6]
  IC50: 3.8 µM

## Cc1ccc2c(Cl)cc(S(=O)(=O)NCCCn3ccnc3)c(O)c2n1 [Example 37, 5-Chloro-8-hydroxy-N-[3-(1H-imidazol-1-yl)propyl]-2-methyl-7-quinolinesulfonamide]
other
  melting point: 194 to 196 °C
[2]; Concentration 6.25 uM, Table 3
  inhibition at 6.25 µM: 3%
[2]; Concentration 12.5 uM, Table 3
  inhibition at 12.5 µM: 12%
[2]; Concentration 25 uM, Table 3
  inhibition at 25 µM: 21%
[2]; Concentration 50 uM, Table 3
  inhibition at 50 µM: 50%
[2]; Concentration 100 uM, Table 3
  inhibition at 100 µM: 55%
[2]; Table 3
  IC50: 72.3 µM

## Cc1ccc2c(Cl)cc(S(=O)(=O)NCc3ccccn3)c(O)c2n1 [Example 59, 5-Chloro-8-hydroxy-2-methyl-N-(2-pyridinylmethyl)-7-quinolinesulfonamide]
other
  melting point: 185 to 186 °C
[2]; Concentration 3.13 μM, Table 6
  inhibition at 3.13 µM: -7%
[2]; Concentration 6.25 μM, Table 6
  inhibition at 6.25 µM: -6%
[2]; Concentration 12.5 μM, Table 6
  inhibition at 12.5 µM: -3%
[2]; Concentration 25 μM, Table 6
  inhibition at 25 µM: 0%
[2]; Concentration 50 μM, Table 6
  inhibition at 50 µM: 14%
[2]; Concentration 100 μM, Table 6
  inhibition at 100 µM: 31%
[2]; Concentration 200 μM, Table 6
  inhibition at 200 µM: 43%
[2]; Table 6
  IC50: > 200 µM

## Cc1ccc2c(Cl)cc(S(=O)(=O)NCCOc3ccccc3)c(O)c2n1 [Example 35, 5-Chloro-8-hydroxy-2-methyl-N-(2-phenoxyethyl)-7-quinoline-sulfonamide]
other
  melting point: 106 to 107 °C
[2]; Concentration 3.13 uM, Table 3
  inhibition at 3.13 µM: 31%
[2]; Concentration 6.25 uM, Table 3
  inhibition at 6.25 µM: 41%
[2]; Concentration 12.5 uM, Table 3
  inhibition at 12.5 µM: 44%
[2]; Concentration 50 uM, Table 3
  inhibition at 50 µM: 89%
[2]; Concentration 100 uM, Table 3
  inhibition at 100 µM: 96%
[2]; Table 3
  IC50: 10 µM

## Cc1ccc2c(Cl)cc(S(=O)(=O)NCCCN3CCOCC3)c(O)c2n1 [drawing 326]
[1]; [4]
  IC50: 2.5 µM
[1]; [5]
  IC50: 3.6 µM

## CC(C)(C)[Si](c1ccccc1)(c1ccccc1)c1cc(Cl)c2cccnc2c1O [Example 43, 5-Chloro-7-[(1,1,-dimethylethyl)diphenylsilyl]-8-quinolinol]
other
  melting point: 133 to 139 °C
[1]; Conc 1.00e+001 uM, Table 4
  % Inh −AV: 99.0%
[1]; Conc 1.25e+000 uM, Table 4
  % Inh −AV: 87.0%
[1]; Conc 2.00e+001 uM, Table 4
  % Inh −AV: 90.0%
[1]; Conc 2.50e+000 uM, Table 4
  % Inh −AV: 99.0%
[1]; Conc 4.00e+000 uM, Table 4
  % Inh −AV: 77.0% and 88.0%
[1]; Conc 4.00e+001 uM, Table 4
  % Inh −AV: 85.0% and 81.0%
[1]; Conc 4.00e−001 uM, Table 4
  % Inh −AV: 50.0%
[1]; Conc 5.00e+000 uM, Table 4
  % Inh −AV: 99.0%
[1]; Conc 8.00e−001 uM, Table 4
  % Inh −AV: 65.0% and 43.0%
[1]; [6]
  IC50: 0.12 µM and 0.44 µM

## Cc1ccc2c(Cl)cc(S(=O)(=O)N[C@H](C)c3ccccc3)c(O)c2n1 [Example 39, (R)-5-Chloro-8-hydroxy-2-methyl-N-(1-phenylethyl)-7-quinolinesulfonamide]
other
  melting point: 84 to 88 °C
[2]; Concentration 3.13 uM, Table 3
  inhibition at 3.13 µM: 16%
[2]; Concentration 6.25 uM, Table 3
  inhibition at 6.25 µM: 28%
[2]; Concentration 12.5 uM, Table 3
  inhibition at 12.5 µM: 43%
[2]; Concentration 25 uM, Table 3
  inhibition at 25 µM: 41%
[2]; Concentration 50 uM, Table 3
  inhibition at 50 µM: 79%
[2]; Concentration 100 uM, Table 3
  inhibition at 100 µM: 71%
[2]; Concentration 200 uM, Table 3
  inhibition at 200 µM: 90%
[2]; Table 3
  IC50: 21.6 µM

## Cc1ccc2c(Cl)cc(S(=O)(=O)NCCCCc3ccccc3)c(O)c2n1 [drawing 328]
[1]; [4]
  IC50: 3.5 µM
